The source of these data is PubChem BioAssay (NCI).

Common to all, as to assay: NCI-60 cell line screen, 48 h
The test system of assay [1] is HS 578T breast.
For assay [2], the system named is HOP-62 NSCLC.
Assay [3] deals with T-47D breast.
Assay [4] concerns SW-620 colon.
For assay [5], the system named is NCI-H522 lung.
Assay [6] deals with OVCAR-8 ovarian.
Assay [7] has as its system PC-3 prostate.
Assay [8] concerns HCT-15 colon.
Assay [9] deals with LOX IMVI melanoma.
The subject of assay [10] is MCF7 breast.
Assay [11] has as its system SR leukemia.
Assay [12] has as its system M14 melanoma.
The subject of assay [13] is ACHN renal.
In assay [14] the test system is SF-539 CNS.
In assay [15] the test system is MOLT-4 leukemia.

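Compound exposure: 48 hours, 5 concentrations, 96-well plates. Definition used: TGI = concentration required for complete inhibition of growth.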

Take `O=C(NCCN(CCNC(=O)c1cccc(O)c1O)CCNC(=O)c1cccc(O)c1O)c1cccc(O)c1O`: the TGI in assay [1] is above 100 µM; in assay [2], above 91.6 µM; in assay [3], above 89.7 µM; in assay [4], above 100 µM; in assay [5], 15.4 µM; in assay [6], 49.4 µM. Further, the TGI is above 100 µM in [7]; above 100 µM in [8]; above 51.5 µM in assay [9]; above 100 µM in assay [10]; above 34.2 µM in assay [11]; above 100 µM in assay [12]. Moreover, the TGI is above 67.7 µM in assay [13] and above 100 µM in assay [14].
For the compound `COc1ccc(CCCCNCc2cccc(CNCCCCc3ccc(OC)cc3)c2)cc1`, the TGI in assay [1] stood at 3.27 µM; in assay [2], 4.99 µM; in assay [3] it was 4.35 µM; in assay [4], 3.28 µM; in assay [15], 6.86 µM; in assay [5], 3.5 µM. Further, the TGI was 3.23 µM in assay [6]; 3.55 µM in [7]; 3.55 µM in assay [8]; 3.23 µM in assay [9]; 3.06 µM in assay [10]; above 100 µM in assay [11]. Besides, the TGI in [12] is 3.5 µM; in [13], 3.47 µM.
Consider `Cc1ccc(OCC2OC(n3cnc4c(Cl)nc(Nc5cc(Cl)cc(Cl)c5)nc43)CC2Oc2ccc(C)cc2)cc1` (stereo not drawn), for which the TGI in assay [1], in [3], in assay [4], in assay [15], in assay [5] and in assay [6] was above 100 µM throughout. Moreover, the TGI in assay [7], in [8], in assay [9], in [10], in [11] and in assay [12] was above 100 µM in each case. For the same compound, the TGI in assay [13] and in assay [14] was above 100 µM each time.
Regarding `COC1(OC)c2occc2C(=N)c2ccc(=O)oc21`, the TGI in [1], in assay [2], in assay [3], in [4], in assay [15] and in [5] was above 100 µM in each case. Also, the TGI in assay [7], in [8], in assay [9], in assay [10], in [11] and in assay [12] was above 100 µM in each case. In addition, the TGI in [13] and in assay [14] was above 100 µM each time.
Regarding `Oc1c(N2CCCCC2)cc(-c2cc(N3CCCCC3)c(O)c3ccccc23)c2ccccc12`, the TGI was 72.6 µM in assay [1]; above 100 µM in assay [2]; above 100 µM in [3]; 94.2 µM in [4]; 79.8 µM in assay [15]; above 100 µM in assay [6]. Also, the TGI in [7] is above 100 µM; in assay [8] it was above 100 µM; in [9], 73.2 µM; in [10] it was 59.2 µM; in [11], 16.2 µM; in [12] it was 32 µM. For the same compound, the TGI in assay [13] was above 100 µM; in assay [14] it was 81.8 µM.
As to `CCN1/C(=C/C#C/C(C)=C\c2sc3ccc(Cl)cc3[n+]2CC)Sc2ccc(Cl)cc21`, the TGI in assay [1] is 28.8 µM; in assay [2], 29 µM; in [3], 17.6 µM; in [5] it was 6.02 µM; in [6], 17 µM; in assay [7], 9.11 µM. The TGI in assay [8] was above 100 µM; in assay [9] it was 14.6 µM; in [10], 15.3 µM; in assay [11], above 100 µM; in assay [12], 16.1 µM; in assay [13], 14.8 µM. For the same compound, the TGI in assay [14] was 16.1 µM.
For the compound `Cc1c(C)c2c(c(N)c1C#N)C(=O)N(Cc1ccc(S(N)(=O)=O)cc1)C2=O`, the TGI was above 100 µM in assay [1]; 19.3 µM in assay [2]; above 59.2 µM in assay [3]; above 100 µM in assay [4]; above 100 µM in assay [15]; above 35.7 µM in assay [6]. In addition, the TGI is above 100 µM in assay [7]; above 100 µM in [8]; above 100 µM in assay [9]; above 100 µM in assay [10]; above 100 µM in assay [11]; above 73.6 µM in [12]. For the same compound, the TGI in [13] was above 63.4 µM; in assay [14], above 60.1 µM.
Consider `CCOC(=O)c1c(NC(=O)c2ccccc2)c(C#N)c2n1CCCCC2`, for which the TGI in assay [1], in assay [2], in assay [3], in assay [15], in assay [5] and in [6] was above 100 µM throughout. Moreover, the TGI in assay [7], in assay [8], in assay [9], in assay [10], in assay [11] and in assay [12] was above 100 µM throughout. In assay [13], this compound yielded a TGI above 100 µM.
As to `Cc1ccc(S(=O)(=O)N(CC(O)COc2ccccc2)c2c(F)cccc2F)cc1` (stereo not drawn), the TGI in [1] is 46.1 µM; in [2], 42.7 µM; in assay [3], 20.1 µM; in [4], 67.7 µM; in assay [15], above 100 µM; in assay [6], 35.5 µM. Further, the TGI is 36.9 µM in assay [7]; 37 µM in assay [8]; 28.5 µM in assay [9]; 30.7 µM in [10]; 61.4 µM in [11]; 32 µM in assay [12]. The figures for the TGI in assay [13] and in assay [14] were 40.1 µM and 33 µM, respectively.
For `O=C(O)CCCc1ccc2c(c1)CC1(C2)Cc2cc3c(cc2C1)CCCC3`, the TGI in assay [1] was above 100 µM; in [2] it was 3.54 µM; in assay [3] it was above 100 µM; in [15] it was 5.4 µM; in [5] it was 47 µM; in assay [6] it was 31.4 µM. Besides, the TGI in [7] is 66.8 µM; in [8], 23.7 µM; in assay [9] it was 32.7 µM; in assay [10], 94.2 µM; in [11], 40.7 µM; in [12], 30.9 µM. The results for the TGI in assay [13] and in assay [14] were 33.1 µM and 3.82 µM, respectively.
